Read-outs that look alike come from different tables or passages of the source.
Assays:
ROCK2 = ROCK2 (Homo sapiens, UniProt O75116); experiment: kinase panel; type: biochemical
AKT2 = AKT2 (Homo sapiens, UniProt P31751); experiment: kinase panel; type: biochemical
PAK6 = PAK6 (Homo sapiens, UniProt Q9NQU5); experiment: kinase panel; type: biochemical
CLK1 = CLK1 (Homo sapiens, UniProt P49759); experiment: kinase panel; type: biochemical
CLK3 = CLK3 (Homo sapiens, UniProt P49761); experiment: kinase panel; type: biochemical
GSK-3-ALPHA = GSK-3-ALPHA (Homo sapiens, UniProt P49840); experiment: kinase panel; type: biochemical
PHK-GAMMA1 = PHK-GAMMA1 (Homo sapiens, UniProt Q16816); experiment: kinase panel; type: biochemical
Chain of PHK-GAMMA1 (Q16816 whole entry): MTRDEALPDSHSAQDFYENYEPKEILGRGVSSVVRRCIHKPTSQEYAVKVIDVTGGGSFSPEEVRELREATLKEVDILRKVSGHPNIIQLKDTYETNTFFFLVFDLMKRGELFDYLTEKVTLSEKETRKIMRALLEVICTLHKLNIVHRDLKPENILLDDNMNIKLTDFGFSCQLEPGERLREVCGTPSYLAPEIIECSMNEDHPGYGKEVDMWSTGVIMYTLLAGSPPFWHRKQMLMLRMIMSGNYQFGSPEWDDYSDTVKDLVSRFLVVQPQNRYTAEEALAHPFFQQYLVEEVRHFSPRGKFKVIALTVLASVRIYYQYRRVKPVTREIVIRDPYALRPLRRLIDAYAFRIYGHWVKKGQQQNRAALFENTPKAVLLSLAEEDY

CLK4 = CLK4 (Homo sapiens, UniProt Q9HAZ1); experiment: kinase panel; type: biochemical
ARG = ARG (Homo sapiens, UniProt P42684); experiment: kinase panel; type: biochemical
PI3K-ALPHA = PI3K-ALPHA (Homo sapiens, UniProt P42336); experiment: kinase panel; type: biochemical
SGK2 = SGK2 (Homo sapiens, UniProt Q9HBY8); experiment: kinase panel; type: biochemical
MER = MER (Homo sapiens, UniProt Q12866); experiment: kinase panel; type: biochemical
HIPK3 = HIPK3 (Homo sapiens, UniProt Q9H422); experiment: kinase panel; type: biochemical
DDR2 = DDR2 (Homo sapiens, UniProt Q16832); experiment: kinase panel; type: biochemical
MNK2 = MNK2 (Homo sapiens, UniProt Q9HBH9); experiment: kinase panel; type: biochemical
Chain of MNK2 (Q9HBH9 whole entry): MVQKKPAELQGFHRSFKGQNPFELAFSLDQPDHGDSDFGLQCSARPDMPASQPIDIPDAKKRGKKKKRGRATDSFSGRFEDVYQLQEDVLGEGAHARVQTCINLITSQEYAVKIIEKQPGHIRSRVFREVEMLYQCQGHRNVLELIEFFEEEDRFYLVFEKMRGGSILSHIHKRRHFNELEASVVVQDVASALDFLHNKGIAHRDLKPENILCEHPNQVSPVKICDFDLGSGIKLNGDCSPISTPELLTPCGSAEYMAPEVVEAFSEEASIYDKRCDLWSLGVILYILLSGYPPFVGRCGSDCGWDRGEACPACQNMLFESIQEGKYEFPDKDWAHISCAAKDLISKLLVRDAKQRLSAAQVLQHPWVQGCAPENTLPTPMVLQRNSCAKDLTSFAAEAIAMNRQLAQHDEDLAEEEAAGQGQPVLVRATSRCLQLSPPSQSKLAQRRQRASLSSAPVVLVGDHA

BLK = BLK (Homo sapiens, UniProt P51451); experiment: kinase panel; type: biochemical
IGF1R = IGF1R (Homo sapiens, UniProt P08069); experiment: kinase panel; type: biochemical
BRAF = BRAF (Homo sapiens, UniProt P15056); experiment: kinase panel; type: biochemical
IKK-BETA = IKK-BETA (Homo sapiens, UniProt O14920); experiment: kinase panel; type: biochemical
Chain of IKK-BETA (O14920 whole entry): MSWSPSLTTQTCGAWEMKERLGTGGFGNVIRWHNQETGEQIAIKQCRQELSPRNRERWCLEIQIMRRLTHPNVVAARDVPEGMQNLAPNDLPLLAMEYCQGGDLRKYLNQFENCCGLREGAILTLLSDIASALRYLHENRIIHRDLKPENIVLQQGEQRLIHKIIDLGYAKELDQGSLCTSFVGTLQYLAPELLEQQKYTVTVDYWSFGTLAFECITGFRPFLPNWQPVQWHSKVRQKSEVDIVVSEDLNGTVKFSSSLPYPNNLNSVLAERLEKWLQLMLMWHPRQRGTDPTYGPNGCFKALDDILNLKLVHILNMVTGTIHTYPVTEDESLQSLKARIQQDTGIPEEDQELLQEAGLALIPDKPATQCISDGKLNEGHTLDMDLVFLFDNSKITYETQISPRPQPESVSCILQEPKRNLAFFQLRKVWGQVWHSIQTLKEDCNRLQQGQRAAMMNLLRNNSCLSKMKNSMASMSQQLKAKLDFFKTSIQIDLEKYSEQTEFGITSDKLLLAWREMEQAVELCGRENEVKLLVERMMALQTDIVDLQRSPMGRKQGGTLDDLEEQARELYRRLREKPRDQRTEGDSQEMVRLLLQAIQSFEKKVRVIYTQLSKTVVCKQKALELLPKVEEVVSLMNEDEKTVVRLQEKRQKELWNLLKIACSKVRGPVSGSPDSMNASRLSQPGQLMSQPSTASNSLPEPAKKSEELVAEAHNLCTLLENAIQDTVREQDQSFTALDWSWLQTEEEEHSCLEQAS

PKACB = PKACB (Homo sapiens, UniProt P22694); experiment: kinase panel; type: biochemical
EGFR = EGFR (Homo sapiens, UniProt P00533); experiment: kinase panel; type: biochemical
INSR = INSR (Homo sapiens, UniProt P06213); experiment: kinase panel; type: biochemical
MSSK1 = MSSK1 (Homo sapiens, UniProt Q9UPE1); experiment: kinase panel; type: biochemical
SRPK2 = SRPK2 (Homo sapiens, UniProt P78362); experiment: kinase panel; type: biochemical
BRSK2 = BRSK2 (Homo sapiens, UniProt Q8IWQ3); experiment: kinase panel; type: biochemical
MST2 = MST2 (Homo sapiens, UniProt Q13188); experiment: kinase panel; type: biochemical
PKC-GAMMA = PKC-GAMMA (Homo sapiens, UniProt P05129); experiment: kinase panel; type: biochemical
CAMK2B = CAMK2B (Homo sapiens, UniProt Q13554); experiment: kinase panel; type: biochemical
JNK1 = JNK1 (Homo sapiens, UniProt P45983); experiment: kinase panel; type: biochemical
Chain of JNK1 (P45983 whole entry): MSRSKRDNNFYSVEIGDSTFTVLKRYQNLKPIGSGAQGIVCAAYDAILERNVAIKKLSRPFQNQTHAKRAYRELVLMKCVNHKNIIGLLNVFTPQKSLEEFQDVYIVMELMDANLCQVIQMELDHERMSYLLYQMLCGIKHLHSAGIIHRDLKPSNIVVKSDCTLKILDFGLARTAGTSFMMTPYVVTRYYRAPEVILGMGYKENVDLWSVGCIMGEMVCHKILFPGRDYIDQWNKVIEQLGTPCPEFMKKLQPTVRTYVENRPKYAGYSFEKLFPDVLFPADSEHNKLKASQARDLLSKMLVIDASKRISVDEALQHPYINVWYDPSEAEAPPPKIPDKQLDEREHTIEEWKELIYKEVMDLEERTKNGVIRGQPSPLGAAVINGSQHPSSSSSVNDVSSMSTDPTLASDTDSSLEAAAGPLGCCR

FES = FES (Homo sapiens, UniProt P07332); experiment: kinase panel; type: biochemical
LCK = LCK (Homo sapiens, UniProt P06239); experiment: kinase panel; type: biochemical
Chain of LCK (P06239 whole entry): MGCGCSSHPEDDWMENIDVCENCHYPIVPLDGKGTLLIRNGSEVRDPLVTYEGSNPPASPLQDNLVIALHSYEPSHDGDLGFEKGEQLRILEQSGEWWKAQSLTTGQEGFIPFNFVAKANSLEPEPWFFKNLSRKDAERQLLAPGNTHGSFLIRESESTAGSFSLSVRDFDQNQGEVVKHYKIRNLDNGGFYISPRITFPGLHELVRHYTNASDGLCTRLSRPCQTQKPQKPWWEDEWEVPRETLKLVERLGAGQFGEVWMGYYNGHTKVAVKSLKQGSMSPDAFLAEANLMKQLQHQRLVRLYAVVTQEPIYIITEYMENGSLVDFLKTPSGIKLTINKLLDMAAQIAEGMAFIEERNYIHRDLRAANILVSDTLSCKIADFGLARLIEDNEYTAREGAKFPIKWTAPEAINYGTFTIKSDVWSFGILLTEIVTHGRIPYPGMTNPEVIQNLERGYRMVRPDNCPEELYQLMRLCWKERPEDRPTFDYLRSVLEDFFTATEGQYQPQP

P38-BETA = P38-BETA (Homo sapiens, UniProt Q15759); experiment: kinase panel; type: biochemical
P38-DELTA = P38-DELTA (Homo sapiens, UniProt O15264); experiment: kinase panel; type: biochemical
P38-GAMMA = P38-GAMMA (Homo sapiens, UniProt P53778); experiment: kinase panel; type: biochemical
FGR = FGR (Homo sapiens, UniProt P09769); experiment: kinase panel; type: biochemical
TYK2 = TYK2 (Homo sapiens, UniProt P29597); experiment: kinase panel; type: biochemical
LYNB = LYNB (Homo sapiens, UniProt P07948); experiment: kinase panel; type: biochemical
TYRO3 = TYRO3 (Homo sapiens, UniProt Q06418); experiment: kinase panel; type: biochemical
Chain of TYRO3 (Q06418 41-890): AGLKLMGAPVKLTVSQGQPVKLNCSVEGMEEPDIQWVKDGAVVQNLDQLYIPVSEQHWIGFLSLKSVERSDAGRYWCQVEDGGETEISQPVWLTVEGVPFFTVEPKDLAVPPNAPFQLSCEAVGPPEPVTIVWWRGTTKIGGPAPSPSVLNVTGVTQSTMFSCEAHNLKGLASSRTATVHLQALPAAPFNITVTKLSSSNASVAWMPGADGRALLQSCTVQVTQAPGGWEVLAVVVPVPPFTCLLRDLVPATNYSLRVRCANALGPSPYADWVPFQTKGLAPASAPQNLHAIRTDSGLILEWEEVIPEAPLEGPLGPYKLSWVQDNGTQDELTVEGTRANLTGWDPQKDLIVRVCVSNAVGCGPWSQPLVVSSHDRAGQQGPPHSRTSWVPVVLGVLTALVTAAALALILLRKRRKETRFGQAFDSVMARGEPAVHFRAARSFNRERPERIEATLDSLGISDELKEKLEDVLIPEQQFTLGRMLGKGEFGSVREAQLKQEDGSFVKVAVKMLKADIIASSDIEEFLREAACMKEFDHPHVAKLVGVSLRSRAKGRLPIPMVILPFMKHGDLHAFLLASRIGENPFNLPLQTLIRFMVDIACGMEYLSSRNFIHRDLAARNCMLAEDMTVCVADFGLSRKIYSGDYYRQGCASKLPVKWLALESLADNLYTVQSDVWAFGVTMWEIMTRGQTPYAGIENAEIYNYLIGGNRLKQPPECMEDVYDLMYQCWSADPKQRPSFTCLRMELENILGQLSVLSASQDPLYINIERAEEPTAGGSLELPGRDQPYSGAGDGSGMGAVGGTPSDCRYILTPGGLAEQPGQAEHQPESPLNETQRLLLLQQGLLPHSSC

MAP4K4 = MAP4K4 (Homo sapiens, UniProt O95819); experiment: kinase panel; type: biochemical
[1] = target: Adrenergic Alpha 2C receptor (Homo sapiens, UniProt P18825); experiment: Adrenergic Alpha 2C receptor assay; type: binding
Alpha1A adrenergic [2] = target: T1, Alpha1A adrenergic (Homo sapiens, UniProt P35348); experiment: Alpha1A adrenergic calcium flux assay; type: cell-based
T1 sequence (P35348 whole entry): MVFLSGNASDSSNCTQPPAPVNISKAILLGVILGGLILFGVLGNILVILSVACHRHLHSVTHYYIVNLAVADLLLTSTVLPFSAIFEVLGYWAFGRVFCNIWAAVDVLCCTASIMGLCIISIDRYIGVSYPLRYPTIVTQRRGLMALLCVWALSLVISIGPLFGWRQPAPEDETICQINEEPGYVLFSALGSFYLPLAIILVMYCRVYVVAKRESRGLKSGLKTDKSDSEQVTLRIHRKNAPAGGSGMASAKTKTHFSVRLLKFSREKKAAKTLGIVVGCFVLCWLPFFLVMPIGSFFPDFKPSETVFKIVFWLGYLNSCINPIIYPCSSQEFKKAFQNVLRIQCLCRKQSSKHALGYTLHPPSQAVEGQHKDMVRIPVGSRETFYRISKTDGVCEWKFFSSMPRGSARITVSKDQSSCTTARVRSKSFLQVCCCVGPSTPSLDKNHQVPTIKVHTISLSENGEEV

Alpha1A adrenergic [3] = target: T1, Alpha1A adrenergic; experiment: Alpha1A adrenergic calcium flux assay; type: cell-based; remark: listed apart in the source
Muscarinic M1 receptor = Muscarinic M1 receptor (Homo sapiens, UniProt P11229); experiment: Muscarinic M1 receptor assay; type: binding
PXR Receptor = PXR Receptor (Homo sapiens, UniProt O75469); experiment: PXR Receptor antagonist assay; type: cell-based
Chain of PXR Receptor (O75469 whole entry): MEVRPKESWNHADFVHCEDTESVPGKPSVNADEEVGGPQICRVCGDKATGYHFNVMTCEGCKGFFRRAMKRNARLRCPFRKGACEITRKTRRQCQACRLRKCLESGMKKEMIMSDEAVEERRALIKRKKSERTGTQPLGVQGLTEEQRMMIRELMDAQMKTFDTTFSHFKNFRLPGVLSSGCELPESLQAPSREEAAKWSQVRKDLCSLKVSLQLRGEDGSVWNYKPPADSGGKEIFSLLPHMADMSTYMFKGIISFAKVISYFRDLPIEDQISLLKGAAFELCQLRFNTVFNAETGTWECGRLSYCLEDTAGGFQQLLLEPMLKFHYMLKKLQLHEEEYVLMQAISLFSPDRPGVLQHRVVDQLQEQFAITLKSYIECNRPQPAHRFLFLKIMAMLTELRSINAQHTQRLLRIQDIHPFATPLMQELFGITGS

Phosphodiesterase 3 = Phosphodiesterase 3 (Homo sapiens, UniProt Q14432); experiment: Phosphodiesterase 3 assay; type: biochemical

Chain of PAK6 (Q9NQU5 whole entry): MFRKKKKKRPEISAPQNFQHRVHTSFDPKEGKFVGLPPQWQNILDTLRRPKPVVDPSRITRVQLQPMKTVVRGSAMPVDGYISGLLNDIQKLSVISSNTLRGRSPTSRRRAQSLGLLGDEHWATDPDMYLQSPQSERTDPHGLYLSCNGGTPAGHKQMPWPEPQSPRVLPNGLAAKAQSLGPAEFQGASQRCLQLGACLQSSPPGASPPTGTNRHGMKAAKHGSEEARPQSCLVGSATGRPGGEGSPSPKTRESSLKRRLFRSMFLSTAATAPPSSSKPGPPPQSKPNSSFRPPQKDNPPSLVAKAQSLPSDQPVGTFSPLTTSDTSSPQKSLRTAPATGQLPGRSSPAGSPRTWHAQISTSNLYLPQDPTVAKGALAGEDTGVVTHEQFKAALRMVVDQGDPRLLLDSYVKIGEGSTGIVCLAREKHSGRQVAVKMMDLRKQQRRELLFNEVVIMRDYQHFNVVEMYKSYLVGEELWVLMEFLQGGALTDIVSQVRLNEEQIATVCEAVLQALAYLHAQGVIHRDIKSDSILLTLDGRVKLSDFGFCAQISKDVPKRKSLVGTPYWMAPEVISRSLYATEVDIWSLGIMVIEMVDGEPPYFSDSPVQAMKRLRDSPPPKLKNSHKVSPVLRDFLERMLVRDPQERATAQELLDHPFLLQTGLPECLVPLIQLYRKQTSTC

inhibition at 1 µM (ROCK2): 0%
inhibition at 1 µM (AKT2): 0%
inhibition at 1 µM (PAK6): 0%
inhibition at 1 µM (CLK1): 0%
inhibition at 1 µM (CLK3): 0%
inhibition at 1 µM (GSK-3-ALPHA): 6%
inhibition at 1 µM (PHK-GAMMA1): 0%
inhibition at 1 µM (CLK4): 0%
inhibition at 1 µM (ARG): 2%
inhibition at 1 µM (PI3K-ALPHA): 0%
inhibition at 1 µM (SGK2): 0%
inhibition at 1 µM (MER): 8%
inhibition at 1 µM (HIPK3): 0%
inhibition at 1 µM (DDR2): 4%
inhibition at 1 µM (MNK2): 3%
inhibition at 1 µM (BLK): 3%
inhibition at 1 µM (IGF1R): 4%
inhibition at 1 µM (BRAF): 0%
inhibition at 1 µM (IKK-BETA): 0%
inhibition at 1 µM (PKACB): 0%
inhibition at 1 µM (EGFR): 7%
inhibition at 1 µM (INSR): 0%
inhibition at 1 µM (MSSK1): 0%
inhibition at 1 µM (SRPK2): 10%
inhibition at 1 µM (BRSK2): 0%
inhibition at 1 µM (MST2): 0%
inhibition at 1 µM (PKC-GAMMA): 0%
inhibition at 1 µM (CAMK2B): 0%
inhibition at 1 µM (JNK1): 0%
inhibition at 1 µM (FES): 2%
inhibition at 1 µM (LCK): 0%
inhibition at 1 µM (P38-BETA): 0%
inhibition at 1 µM (P38-DELTA): 0%
inhibition at 1 µM (P38-GAMMA): 2%
inhibition at 1 µM (FGR): 0%
inhibition at 1 µM (TYK2): 0%
inhibition at 1 µM (LYNB): 3%
inhibition at 1 µM (TYRO3): 0%
inhibition at 1 µM (MAP4K4): 2%
IC50 [1]: > 30 µM
IC50 (Alpha1A adrenergic [2]): > 30 µM
IC50 (Alpha1A adrenergic [3]): > 30 µM
IC50 (Muscarinic M1 receptor): > 30 µM
IC50 (PXR Receptor): > 3 µM
IC50 (Phosphodiesterase 3): > 30 µM
Structure (SMILES): O=C(Nc1nccs1)C(c1cc(F)ccc1O)N1Cc2ccccc2C1=O (stereo not drawn) [EAI045, 2-(5-fluoro-2-hydroxyphenyl)-2-(1-oxo-2,3-dihydro-1H-isoindol-2-yl)-N-(1,3-thiazol-2-yl)acetamide]

Source: publication PMC4929832 (Nature, 2016)
